Measurements taken from patent US20020082273A1, “Agents for use in the treatment of alzheimer's disease” (priority 1998, published 2002).
Marks after values point to notes of the source that are not given here.

Assays:
[1] = system: Aβ; test: Effect of agents on Cu^2+-induced SDS-resistant Aβ polymerization; type: biochemical, human
Method: Cu^2+-induced SDS-resistant oligomerization of Aβ: Aβ (2.5 μM), 150 mM NaCl, 20 mM hepes (pH 6.6, 7.4, 9) with or without ZnCl2 or CuCl2. Following incubation (37° C.), aliquots of each reaction (2 ng peptide) were collected at 0 d, 1 d, 3 d and 5 d and western blotted using anti-Aβ monoclonal antibody 8E10 (FIG. 9). Migration of the molecular size markers are indicated (kDa). […] Cu^2+ (2-30 μM) induced SDS-resistant polymerization of peptide. […] It should be noted that other means of visualizing and/or determining the presence or absence of polymerization other than western blot analysis may be used. Such other means include but are not limited to density sedimentation by centrifugation of the samples.
It is possible that the decreased polymerization may be due to chelation of Cu^2+ by BC, however given the low binding affinity of BC for Cu^2+ compared with Aβ, it seems likely that the chelation of Cu^+ by BC prevents it from inducing SDS-resistant Ad polymerization. Therefore, Aβ may undergo a hydroxyl radical modification that promotes its assembly into SDS-resistant polymers.

[2] = system: Aβ deposits of AD-affected brain; test: Extraction (solubilization) of Aβ from post-mortem AD brain tissue homogenates, western blot densitometry; type: biochemical, human; details: for Effect of Chelators upon extraction of Aβ (% change from control): mean n = 6 AD brain samples, above PBS extraction alone
Method: Identical regions of frontal cortex (0.5 g) from post-mortem brains of individuals with AD, as well as non-AD conditions, were homogenized in TBS, […] ±metal chelators.
0.5 g of prefrontal cortex was dissected and homogenized in PBS ±chelator as indicated. The homogenate was then centrifuged (100,000 g) and the supernatant removed, and a sample taken for western blot assay using anti-Aβ specific antibodies after Tricine PAGE. Densitometry was performed against synthetic peptide standards.
Densitometry of Aβ western blots (FIGS. 19A-19C) was performed for a series of 6 AD brain samples homogenized in the presence of chelators as indicated.
Next the ability of clioquinol to extract Aβ deposits from human brain was examined. […] Fragments of prefrontal cortex from individual post-mortem samples with the histopathological diagnosis of AD were homogenized in PBS, pH 7.4, and then pelleted after centrifugation. The pellets were then washed with agitation twice for 30 minutes, 4° C., with PBS or PBS containing clioquinol (100% =0.8 μM clioquinol). The suspension was then pelleted (10,000 g for 30 minutes) and the supernatant removed (S1) for western blot analysis using Aβ-specific antibodies (illustrated). The pellet was treated a second time in this experiment with agitation and centrifugation, and the second supernatant (S2) analysed.
Soluble Aβ (ng/g tissue) was determined as described. Total Aβ was determined following formic acid extraction of otherwise untreated tissue.
(§1) Suitable quantities of gray matter from each subject were minced to serve as pools of homogenous tissue. […] To obtain the soluble fraction, the homogenates were centrifuged at 100,000× g for 30 min (Beckman J180, Beckman instruments, Fullerton, California) and the supernatant collected in 1 ml aliquots and stored on ice or immediately frozen at −70° C. In each experiment, all protein was precipitated from 1 ml of supernatant from each treatment group using 1:5 ice cold 10% trichloracetic acid and pelleted in a bench top microfuge (Heraeus, Osteroder, Germany) at 10,000× g. The remaining pellet was frozen at −70° C.
Precipitated protein was subjected to SDS polyacrylamide gel electrophoresis (SDS-PAGE) on Novex pre-cast 10-20% Tris-Tricine gels followed by Western transfer onto 0.2 μm nitrocellulose membrane (Biorad, Hercules, Calif.). […] Each gel included two or more lanes containing known quantities of synthetic Aβ which served as internal reference standards. Blot images were captured by a Relisys scanner with transparency adapter (Teco Information Systems, Taiwan, ROC) and densitometry conducted using the NIH Image 1.6 program (National Institutes for Health, USA. Modified for PC by Scion Corporation, Frederick, Md.), calibrated using a step diffusion chart. For quantitation of Aβ in brain extracts, the internal reference standards of synthetic Aβ were utilized to produce standard curves from which values were interpolated.

[3] = system: Aβ deposits of age-matched control brain; test: Extraction of Aβ from age-matched non-AD control brain tissue; type: biochemical, human; details: chelator 2 mM
Method: as §1
Precipitated protein was subjected to SDS polyacrylamide gel electrophoresis (SDS-PAGE) on Novex pre-cast 10-20% Tris-Tricine gels followed by Western transfer onto 0.2 μm nitrocellulose membrane (Biorad, Hercules, Calif.). Aβ was detected using the WO2, G210 or G211 monoclonal antibodies (Ida, N., et al., J. Biol. Chem., 271:22908 (1996)) in combination with HRP-conjugated rabbit anti-mouse IgG (Dako, Denmark), and visualized using chemiluminescence (ECL, Amersham Life Science, Little Chalfont, Buckinghamshire, UK). Each gel included two or more lanes containing known quantities of synthetic Aβ which served as internal reference standards. Blot images were captured by a Relisys scanner with transparency adapter (Teco Information Systems, Taiwan, ROC) and densitometry conducted using the NIH Image 1.6 program (National Institutes for Health, USA. Modified for PC by Scion Corporation, Frederick, Md.), calibrated using a step diffusion chart. For quantitation of Aβ in brain extracts, the internal reference standards of synthetic Aβ were utilized to produce standard curves from which values were interpolated.

[4] = Residual metals in post-centrifugation pellets of brain homogenates (ICP-AES); type: biochemical, human; set-up: Residual Metal Levels, Mg: unit not given here; details: for Residual Al in extracted pellet / Residual Ca in extracted pellet / Residual Cu in extracted pellet / Residual Fe in extracted pellet / Residual Mg in extracted pellet / Residual Zn in extracted pellet: Table 6
[5] = cited from earlier work
[6] = cited from earlier work; remark: listed apart in the source
[7] = Table 1; K=[ML]/[M][L]; cited from earlier work
[8] = cited from earlier work; remark: listed apart in the source
[9] = cited from earlier work; remark: listed apart in the source
[10] = Table 1; K=[ML]/[M][L]; cited from earlier work; remark: listed apart in the source
[11] = Table 1; K=[ML]/[M][L]; cited from earlier work; remark: listed apart in the source
[12] = Table 3, TPEN 0.1 mM, AD (n=6) and healthy controls (n=4)
[13] = Table 7, 10 AD specimens, 0.1 mM TPEN

SMILES: O=S([O-])S(=O)(=O)[O-].[Na+].[Na+] [sodium metabisulfite]
- effect on Cu^2+-induced SDS-resistant Aβ polymerization [1]: moderately attenuates

SMILES: Cl.O=C(O)CCP(CCC(=O)O)CCC(=O)O [TCEP, Tris(2-Carboxyethyl)-Phosphine Hydrochloride]
- effect on Cu^2+-induced SDS-resistant Aβ polymerization [1]: significantly reduced the level of polymerization

SMILES: c1ccc(CN(CCN(Cc2ccccn2)Cc2ccccn2)Cc2ccccn2)nc1 [TPEN, N,N,N′,N′-tetrakis [2-pyridyl-methyl] ethylenediamine]
- Effect of Chelators upon extraction of Aβ (% change from control) ([2]; 0.1 mM chelator): 182%
- Effect of Chelators upon extraction of Aβ (% change from control) ([2]; 2.0 mM chelator): 241%
- mean increase of Aβ solubilization over PBS alone ([2]; 6 AD brains, 0.1 or 2.0 mM): around 2 fold
- Extractable Aβ ([2]; AD subject 1, chelator 2 mM): 0.21 µg/g
- Extractable Aβ (% of total) ([2]; AD subject 1, chelator 2 mM): (0.2) %
- Extractable Aβ ([2]; AD subject 2, chelator 2 mM): 3.40 µg/g
- Extractable Aβ (% of total) ([2]; AD subject 2, chelator 2 mM): (4.4) %
- Extractable Aβ ([2]; AD subject 3, chelator 2 mM): 1.80 µg/g
- Extractable Aβ (% of total) ([2]; AD subject 3, chelator 2 mM): (2.25) %
- Extractable Aβ ([2]; AD subject 4, chelator 2 mM): 5.50 µg/g
- Extractable Aβ (% of total) ([2]; AD subject 4, chelator 2 mM): (9.2) %
- Extractable Aβ ([2]; AD subject 5, chelator 2 mM): 5.00 µg/g
- Extractable Aβ (% of total) ([2]; AD subject 5, chelator 2 mM): (3.5) %
- Extractable Aβ ([2]; AD subject 6, chelator 2 mM): 0.28 µg/g
- Extractable Aβ (% of total) ([2]; AD subject 6, chelator 2 mM): (1.75) %
- Extractable Aβ (% of total), X (mean) ([2]; AD subjects 1-6, chelator 2 mM): (4.6) %
- Extractable Aβ, X (mean) ([2]; AD subjects 1-6, chelator 2 mM): 2.73 µg/g
- X C/PBS (mean chelator / PBS) ([2]; AD tissue, chelator 2 mM): 2.60
- efficiency in extracting Aβ ([2]; neutral saline buffer, TPEN 5 μM): highly efficient
- Extractable Aβ ([3]; AC subject 1): 0.22 µg/g
- Extractable Aβ (% of total) ([3]; AC subject 1): (32.0) %
- Extractable Aβ ([3]; AC subject 2): 0.38 µg/g
- Extractable Aβ (% of total) ([3]; AC subject 2): (9.0) %
- Extractable Aβ ([3]; AC subject 3): 0.26 µg/g
- Extractable Aβ (% of total) ([3]; AC subject 3): (9.7) %
- Extractable Aβ ([3]; AC subject 4): 0.09 µg/g
- Extractable Aβ (% of total) ([3]; AC subject 4): (3.0) %
- Extractable Aβ ([3]; AC subject 5): 1.06 µg/g
- Extractable Aβ (% of total) ([3]; AC subject 5): (29.5) %
- Extractable Aβ (% of total), X (mean) ([3]; AC subjects 1-5): (16.7) %
- Extractable Aβ, X (mean) ([3]; AC subjects 1-5): 0.40 µg/g
- X C/PBS (mean chelator / PBS) ([3]; age-matched control tissue): 1.6
- Residual Al in pellet [4, 12]: 65 mg/kg
- Residual Ca in pellet [4, 12]: (210) mg/kg
- Residual Cu in pellet [4, 12]: 9.8 mg/kg
- Residual Fe in pellet [4, 12]: 239 mg/kg
- Residual Mg in pellet [4, 12]: 230 mg/kg
- Residual Zn in pellet [4, 12]: 33.2* mg/kg
- Residual Al in extracted pellet ([4]; chelator 0.001 mM): 34 mg/kg
- Residual Ca in extracted pellet ([4]; chelator 0.001 mM): 490 mg/kg
- Residual Cu in extracted pellet ([4]; chelator 0.001 mM): 12 mg/kg
- Residual Fe in extracted pellet ([4]; chelator 0.001 mM): 512 mg/kg
- Residual Mg in extracted pellet ([4]; chelator 0.001 mM): 192 mg/kg
- Residual Zn in extracted pellet ([4]; chelator 0.001 mM): 42 mg/kg
- Residual Al in extracted pellet ([4]; chelator 0.004 mM): 22 mg/kg
- Residual Ca in extracted pellet ([4]; chelator 0.004 mM): 322 mg/kg
- Residual Cu in extracted pellet ([4]; chelator 0.004 mM): 10 mg/kg
- Residual Fe in extracted pellet ([4]; chelator 0.004 mM): 317 mg/kg
- Residual Mg in extracted pellet ([4]; chelator 0.004 mM): 147 mg/kg
- Residual Zn in extracted pellet ([4]; chelator 0.004 mM): 28 mg/kg
- Residual Al in extracted pellet ([4]; chelator 0.04 mM): 22 mg/kg
- Residual Ca in extracted pellet ([4]; chelator 0.04 mM): 956 mg/kg
- Residual Cu in extracted pellet ([4]; chelator 0.04 mM): 10 mg/kg
- Residual Fe in extracted pellet ([4]; chelator 0.04 mM): 322 mg/kg
- Residual Mg in extracted pellet ([4]; chelator 0.04 mM): 201 mg/kg
- Residual Zn in extracted pellet ([4]; chelator 0.04 mM): 22 mg/kg
- Residual Al in extracted pellet ([4]; chelator 0.1 mM): 60 mg/kg
- Residual Ca in extracted pellet ([4]; chelator 0.1 mM): 708 mg/kg
- Residual Cu in extracted pellet ([4]; chelator 0.1 mM): 12 mg/kg
- Residual Fe in extracted pellet ([4]; chelator 0.1 mM): 389 mg/kg
- Residual Mg in extracted pellet ([4]; chelator 0.1 mM): 200 mg/kg
- Residual Zn in extracted pellet ([4]; chelator 0.1 mM): 21 mg/kg
- Residual Al in extracted pellet ([4]; chelator 2.0 mM): 148 mg/kg
- Residual Ca in extracted pellet ([4]; chelator 2.0 mM): 419 mg/kg
- Residual Cu in extracted pellet ([4]; chelator 2.0 mM): 11 mg/kg
- Residual Fe in extracted pellet ([4]; chelator 2.0 mM): 376 mg/kg
- Residual Mg in extracted pellet ([4]; chelator 2.0 mM): 200 mg/kg
- Residual Zn in extracted pellet ([4]; chelator 2.0 mM): 19 mg/kg
- Residual Al in extracted pellet ([4]; chelator 5.0 mM): 16 mg/kg
- Residual Ca in extracted pellet ([4]; chelator 5.0 mM): 377 mg/kg
- Residual Cu in extracted pellet ([4]; chelator 5.0 mM): 10 mg/kg
- Residual Fe in extracted pellet ([4]; chelator 5.0 mM): 307 mg/kg
- Residual Mg in extracted pellet ([4]; chelator 5.0 mM): 205 mg/kg
- Residual Zn in extracted pellet ([4]; chelator 5.0 mM): 17 mg/kg
- Residual Metal Levels, Al [4, 13]: 65
- Residual Metal Levels, Ca [4, 13]: 210
- Residual Metal Levels, Cu [4, 13]: 9.8
- Residual Metal Levels, Fe [4, 13]: 239
- Residual Metal Levels, Mg [4, 13]: 230
- Residual Metal Levels, Zn [4, 13]: 33.2
- LogK, Ca ([5]; Table 1, K=[ML]/[M][L]): 3.0
- Stability constant logK10, Ca ([5]; Table 5, NIST database): 3
- LogK, Cu ([6]; Table 1, K=[ML]/[M][L]): 20.2
- Stability constant logK10, Cu ([6]; Table 5, NIST database): 20.2
- LogK, Mg [7]: 0
- LogK, Fe ([8]; Table 1, K=[ML]/[M][L]): 14.4
- Stability constant logK10, Fe ([8]; Table 5, NIST database): 14.4
- LogK, Zn ([9]; Table 1, K=[ML]/[M][L]): 15.4
- Stability constant logK10, Zn ([9]; Table 5, NIST database): 15.4
- LogK, Al [10]: 0
- LogK, Co [11]: 0
